These results are taken from patent US4783410A (priority 1985, dated 1988).

The test system of series [1] is specific target cell lysis of P815 cells by CTL clone G4. Format: cell-based, murine.
In series [2] the target is CTL serine esterase (G4 extract) (Mus musculus, UniProt P11032). In words: biochemical. The series is classed as biochemical, murine.
Series [3] concerns specific target cell lysis of P815 cells by CTL clone G4. As to conditions: cited from earlier work.

“Also recorded” adds a separate entry of the source.

Chain of CTL serine esterase (G4 extract) (P11032 29-260): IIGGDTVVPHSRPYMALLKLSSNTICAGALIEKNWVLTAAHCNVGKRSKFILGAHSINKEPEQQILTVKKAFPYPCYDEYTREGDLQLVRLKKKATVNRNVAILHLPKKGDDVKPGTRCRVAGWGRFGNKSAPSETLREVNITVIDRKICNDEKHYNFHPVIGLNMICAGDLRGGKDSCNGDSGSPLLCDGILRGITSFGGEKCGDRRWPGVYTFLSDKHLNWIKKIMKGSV

For the compound `O=S(=O)(F)Cc1ccccc1` [PMSF, phenylmethylsulfonyl fluoride], in series [1], the “Inhibition of lysis of P815 cells by cloned anti-D^d G4 cells” value is given as “clearly inhibits lysis”. The “Inhibition of CTL esterase activity (in words)” value in series [2] is “blocked completely; also recorded: completely inhibitable”. Moreover, in the series on G4 cells, the “Toxicity to G4 cells by 51Cr release or reduced recovery of viable (trypan blue-negative) cells” value was “no additive toxicity”.

Usually inhibition stands for how much of the control response was suppressed. Turning to `Cc1ccc(S(=O)(=O)NC(CCCCN)C(=O)CCl)cc1` (stereo not drawn) [TLCK, N^alpha -tosyl lysyl chloromethyl ketone], the “Block of CTL cytotoxicity” value in series [3] is reported as “known to block CTL cytotoxicity”. Moreover, in series [2], the “Inhibition of CTL esterase activity (in words)” value was “not, however, inhibited”. The inhibition at 500 µM in series [2] (read-out: Percent Inhibition of esterase activity) was determined as 4.6%.
